Measured values: patent US6355799B1, “Substituted benzene compounds, process for their preparation, and herbicidal and defoliant compositions containing them” (ISK Americas Incorporated, priority 1997, dated 2002)

Tests used:
Format in all cases: in vivo
[1] = test system: redroot pigweed (Amaranthus retroflexus, AMARE); test: Pre-emerge test, greenhouse herbicide activity screening; conditions: rating scale 0-100, 14 days after application
Method in brief: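 Visual ratings on a 0-100 scale (0 no damage, 100 all plants dead) were taken at 14 days after treatment. Rates of 15-1000 g ai/ha in acetone, 187 l/ha, were sprayed onto soil one day after planting (pre-emerge) or onto 2-3 leaf plants with 0.25% v/v surfactant (post-emerge).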

[2] = test system: barnyardgrass (Echinochloa crus-galli, ECHCG); test: as above; conditions: rating scale 0-100, 14 days after application
Method in brief: (§1)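 Sandy loam pots; pre-emerge: sown 1 d pre-spray, surface-watered after, then bottom-watered. Post-emerge: sown 8–21 d before, 2–3 leaf stage, + 0.25% v/v NIS, bottom-watered. Acetone, 187 l/ha track spray, 15–1000 g ai/ha. 0–100 injury score, day 14.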

[3] = test system: green foxtail (Setaria viridis, SETVI); test: as above; conditions: rating scale 0-100, 14 days after application
Method in brief: as §1

[4] = test system: ivyleaf morningglory (Ipomoea hederacea, IPOHE); test: as above; conditions: rating scale 0-100, 14 days after application
Method in brief: as §1

[5] = test system: johnsongrass (Sorghum halepense, SORHA); test: as above; conditions: rating scale 0-100, 14 days after application
Method in brief: as §1

[6] = test system: lambsquarters (Chenopodium album, CHEAL); test: as above; conditions: rating scale 0-100, 14 days after application
Method in brief: as §1

[7] = test system: large crabgrass (Digitaria sanguinalis, DIGSA); test: as above; conditions: rating scale 0-100, 14 days after application
Method in brief: as §1

[8] = test system: sicklepod (Cassia obtusifolia, CASOB); test: as above; conditions: rating scale 0-100, 14 days after application
Method in brief: as §1

[9] = test system: velvetleaf (Abutilon theophrasti, ABUTH); test: as above; conditions: rating scale 0-100, 14 days after application
Method in brief: as §1

[10] = test system: field corn (Zea mays L., var. Dekalb 535, CORN); test: Pre-emerge test, crop safety; conditions: rating scale 0-100, 14 days after application
Method in brief: (§2)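 Rating: 0–100 visual injury, 14 DAA. Application: acetone, 187 l/ha, 15–1000 g ai/ha, flat-fan track sprayer with nozzle 40–45 cm above soil or canopy. Post-emerge runs used 0.25% v/v surfactant on 2–3 leaf plants.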

[11] = test system: upland rice (Oryza sp., var. Tebonnet, RICE); test: Pre-emerge test, crop safety; conditions: rating scale 0-100, 14 days after application
Method in brief: as §2

[12] = test system: barnyardgrass (Echinochloa crus-galli, ECHCG); test: Post-emerge test, greenhouse herbicide activity screening; conditions: rating scale 0-100 (0 no damage, 100 complete death), 14 days after application
Method in brief: (§3)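 Each test used a mechanized track sprayer delivering 187 l/ha of acetone solution at 15–1000 g ai/ha. Post-emerge foliage at 2–3 leaves was treated with added 0.25% v/v non-ionic surfactant and bottom-watered only. Injury was assessed on day 14, where 100 means total kill.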

[13] = test system: green foxtail (Setaria viridis, SETVI); test: as above; conditions: rating scale 0-100 (0 no damage, 100 complete death), 14 days after application
Method in brief: as §3

[14] = test system: ivyleaf morningglory (Ipomoea hederacea, IPOHE); test: as above; conditions: rating scale 0-100 (0 no damage, 100 complete death), 14 days after application
Method in brief: as §3

[15] = test system: johnsongrass (Sorghum halepense, SORHA); test: as above; conditions: rating scale 0-100 (0 no damage, 100 complete death), 14 days after application
Method in brief: as §3

[16] = test system: lambsquarters (Chenopodium album, CHEAL); test: as above; conditions: rating scale 0-100 (0 no damage, 100 complete death), 14 days after application
Method in brief: as §3

[17] = test system: large crabgrass (Digitaria sanguinalis, DIGSA); test: as above; conditions: rating scale 0-100 (0 no damage, 100 complete death), 14 days after application
Method in brief: as §3

[18] = test system: redroot pigweed (Amaranthus retroflexus, AMARE); test: as above; conditions: rating scale 0-100 (0 no damage, 100 complete death), 14 days after application
Method in brief: as §3

[19] = test system: sicklepod (Cassia obtusifolia, CASOB); test: as above; conditions: rating scale 0-100 (0 no damage, 100 complete death), 14 days after application
Method in brief: as §3

[20] = test system: velvetleaf (Abutilon theophrasti, ABUTH); test: as above; conditions: rating scale 0-100 (0 no damage, 100 complete death), 14 days after application
Method in brief: as §3

[21] = test system: field corn (Zea mays L., var. Dekalb 535, CORN); test: Post-emerge test, crop safety; conditions: rating scale 0-100 (0 no damage, 100 complete death), 14 days after application
Method in brief: as §1

[22] = test system: upland rice (Oryza sp., var. Tebonnet, RICE); test: Post-emerge test, crop safety; conditions: rating scale 0-100 (0 no damage, 100 complete death), 14 days after application
Method in brief: as §1

COc1c(Cl)cc(F)c(-n2c(=O)cc(C(F)(F)F)n(C)c2=O)c1CC(Cl)C(=O)OCCOc1ccccc1 (single isomer, unassigned) [14-27]
95: Post-emerge Herbicidal Activity, phytotoxicity rating DIGSA ([17]; Rate 250 g ai/ha)
10: Post-emerge Herbicidal Activity, phytotoxicity rating SORHA ([15]; Rate 250 g ai/ha) | Post-emerge phytotoxicity rating CORN (crop damage) ([21]; Rate 250 g ai/ha)
90: Pre-emerge herbicidal activity, phytotoxicity rating CHEAL ([6]; 250 g ai/ha) | Pre-emerge herbicidal activity, phytotoxicity rating DIGSA ([7]; 250 g ai/ha) | Post-emerge Herbicidal Activity, phytotoxicity rating CHEAL ([16]; Rate 63 g ai/ha) | Post-emerge Herbicidal Activity, phytotoxicity rating AMARE ([18]; Rate 250 g ai/ha)
70: Post-emerge Herbicidal Activity, phytotoxicity rating IPOHE ([14]; Rate 63 g ai/ha) | Post-emerge Herbicidal Activity, phytotoxicity rating DIGSA ([17]; Rate 63 g ai/ha) | Post-emerge Herbicidal Activity, phytotoxicity rating ABUTH ([20]; Rate 63 g ai/ha)
5: Post-emerge phytotoxicity rating CORN (crop damage) ([21]; Rate 63 g ai/ha)
100: Pre-emerge herbicidal activity, phytotoxicity rating AMARE ([1]; 250 g ai/ha) | Post-emerge Herbicidal Activity, phytotoxicity rating ECHCG ([12]; Rate 250 g ai/ha) | Post-emerge Herbicidal Activity, phytotoxicity rating CHEAL ([16]; Rate 250 g ai/ha)
0: Pre-emerge herbicidal activity, phytotoxicity rating ECHCG ([2]; 63 g ai/ha) | Pre-emerge herbicidal activity, phytotoxicity rating ECHCG ([2]; 250 g ai/ha) | Pre-emerge herbicidal activity, phytotoxicity rating SETVI ([3]; 63 g ai/ha) | Pre-emerge herbicidal activity, phytotoxicity rating SETVI ([3]; 250 g ai/ha) | Pre-emerge herbicidal activity, phytotoxicity rating IPOHE ([4]; 63 g ai/ha) | Pre-emerge herbicidal activity, phytotoxicity rating IPOHE ([4]; 250 g ai/ha) | Pre-emerge herbicidal activity, phytotoxicity rating SORHA ([5]; 63 g ai/ha) | Pre-emerge herbicidal activity, phytotoxicity rating SORHA ([5]; 250 g ai/ha) | Pre-emerge herbicidal activity, phytotoxicity rating CHEAL ([6]; 63 g ai/ha) | Pre-emerge herbicidal activity, phytotoxicity rating DIGSA ([7]; 63 g ai/ha) | Pre-emerge herbicidal activity, phytotoxicity rating CASOB ([8]; 63 g ai/ha) | Pre-emerge herbicidal activity, phytotoxicity rating CASOB ([8]; 250 g ai/ha) | Pre-emerge herbicidal activity, phytotoxicity rating ABUTH ([9]; 63 g ai/ha) | Pre-emerge phytotoxicity rating, crop damage CORN ([10]; 63 g ai/ha) | Pre-emerge phytotoxicity rating, crop damage CORN ([10]; 250 g ai/ha) | Pre-emerge phytotoxicity rating, crop damage RICE ([11]; 63 g ai/ha) | Pre-emerge phytotoxicity rating, crop damage RICE ([11]; 250 g ai/ha) | Post-emerge Herbicidal Activity, phytotoxicity rating SETVI ([13]; Rate 63 g ai/ha) | Post-emerge Herbicidal Activity, phytotoxicity rating SORHA ([15]; Rate 63 g ai/ha) | Post-emerge phytotoxicity rating RICE (crop damage) ([22]; Rate 63 g ai/ha) | Post-emerge phytotoxicity rating RICE (crop damage) ([22]; Rate 250 g ai/ha)
80: Post-emerge Herbicidal Activity, phytotoxicity rating ABUTH ([20]; Rate 250 g ai/ha)
30: Pre-emerge herbicidal activity, phytotoxicity rating ABUTH ([9]; 250 g ai/ha) | Post-emerge Herbicidal Activity, phytotoxicity rating CASOB ([19]; Rate 250 g ai/ha)
99: Post-emerge Herbicidal Activity, phytotoxicity rating ECHCG ([12]; Rate 63 g ai/ha)
50: Pre-emerge herbicidal activity, phytotoxicity rating AMARE ([1]; 63 g ai/ha) | Post-emerge Herbicidal Activity, phytotoxicity rating IPOHE ([14]; Rate 250 g ai/ha) | Post-emerge Herbicidal Activity, phytotoxicity rating AMARE ([18]; Rate 63 g ai/ha) | Post-emerge Herbicidal Activity, phytotoxicity rating CASOB ([19]; Rate 63 g ai/ha)
20: Post-emerge Herbicidal Activity, phytotoxicity rating SETVI ([13]; Rate 250 g ai/ha)
